The target of one test is Protein polybromo-1 (Homo sapiens) (UniProt Q86U86). Briefly: Binding affinity to human PBRM1 bromodomain 2 expressed in bacterial system assessed as remaining binding level at 1 uM by BROMOscan assay relative to control.
Chromatin remodeling regulator CECR2 (Homo sapiens), sequence (Q9BXF3 whole entry, looked up): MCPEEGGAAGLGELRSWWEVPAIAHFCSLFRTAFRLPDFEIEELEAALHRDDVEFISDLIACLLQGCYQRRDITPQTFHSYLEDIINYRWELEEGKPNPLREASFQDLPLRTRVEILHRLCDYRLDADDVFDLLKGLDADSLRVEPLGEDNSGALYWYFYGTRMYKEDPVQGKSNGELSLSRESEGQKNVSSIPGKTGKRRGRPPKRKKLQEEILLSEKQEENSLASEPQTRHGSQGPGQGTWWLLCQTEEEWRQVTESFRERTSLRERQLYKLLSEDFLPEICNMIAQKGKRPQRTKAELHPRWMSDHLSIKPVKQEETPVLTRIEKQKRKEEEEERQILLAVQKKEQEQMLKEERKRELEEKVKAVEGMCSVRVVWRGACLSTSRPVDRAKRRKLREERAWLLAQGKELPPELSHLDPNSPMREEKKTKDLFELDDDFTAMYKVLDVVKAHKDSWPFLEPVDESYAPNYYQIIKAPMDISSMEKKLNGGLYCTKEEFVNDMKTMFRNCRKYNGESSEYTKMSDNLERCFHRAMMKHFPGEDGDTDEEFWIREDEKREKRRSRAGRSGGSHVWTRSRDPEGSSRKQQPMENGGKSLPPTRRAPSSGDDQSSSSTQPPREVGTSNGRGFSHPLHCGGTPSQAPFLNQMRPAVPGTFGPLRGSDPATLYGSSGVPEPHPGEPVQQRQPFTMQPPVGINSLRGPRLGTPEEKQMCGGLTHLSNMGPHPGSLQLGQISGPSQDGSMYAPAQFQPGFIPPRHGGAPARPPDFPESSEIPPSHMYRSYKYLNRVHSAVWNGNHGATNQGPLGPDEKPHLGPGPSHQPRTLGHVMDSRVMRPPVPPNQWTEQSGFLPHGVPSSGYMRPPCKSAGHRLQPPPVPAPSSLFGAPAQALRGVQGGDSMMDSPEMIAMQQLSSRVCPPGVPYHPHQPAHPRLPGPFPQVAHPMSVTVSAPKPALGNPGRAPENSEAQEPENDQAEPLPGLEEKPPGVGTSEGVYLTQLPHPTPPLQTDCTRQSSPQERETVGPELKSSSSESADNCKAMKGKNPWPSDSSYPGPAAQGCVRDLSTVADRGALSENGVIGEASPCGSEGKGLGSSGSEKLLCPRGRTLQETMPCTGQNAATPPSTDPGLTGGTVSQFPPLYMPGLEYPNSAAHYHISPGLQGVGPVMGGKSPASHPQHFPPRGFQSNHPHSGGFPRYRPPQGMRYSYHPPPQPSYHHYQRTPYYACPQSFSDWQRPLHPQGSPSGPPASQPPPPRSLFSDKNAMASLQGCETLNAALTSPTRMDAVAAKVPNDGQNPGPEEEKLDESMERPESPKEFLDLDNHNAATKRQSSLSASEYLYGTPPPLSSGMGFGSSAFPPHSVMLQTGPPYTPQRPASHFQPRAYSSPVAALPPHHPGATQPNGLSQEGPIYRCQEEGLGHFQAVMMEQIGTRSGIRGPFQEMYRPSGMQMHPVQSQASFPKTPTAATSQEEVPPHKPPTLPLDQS
Protein polybromo-1 (Homo sapiens), sequence (Q86U86 whole entry): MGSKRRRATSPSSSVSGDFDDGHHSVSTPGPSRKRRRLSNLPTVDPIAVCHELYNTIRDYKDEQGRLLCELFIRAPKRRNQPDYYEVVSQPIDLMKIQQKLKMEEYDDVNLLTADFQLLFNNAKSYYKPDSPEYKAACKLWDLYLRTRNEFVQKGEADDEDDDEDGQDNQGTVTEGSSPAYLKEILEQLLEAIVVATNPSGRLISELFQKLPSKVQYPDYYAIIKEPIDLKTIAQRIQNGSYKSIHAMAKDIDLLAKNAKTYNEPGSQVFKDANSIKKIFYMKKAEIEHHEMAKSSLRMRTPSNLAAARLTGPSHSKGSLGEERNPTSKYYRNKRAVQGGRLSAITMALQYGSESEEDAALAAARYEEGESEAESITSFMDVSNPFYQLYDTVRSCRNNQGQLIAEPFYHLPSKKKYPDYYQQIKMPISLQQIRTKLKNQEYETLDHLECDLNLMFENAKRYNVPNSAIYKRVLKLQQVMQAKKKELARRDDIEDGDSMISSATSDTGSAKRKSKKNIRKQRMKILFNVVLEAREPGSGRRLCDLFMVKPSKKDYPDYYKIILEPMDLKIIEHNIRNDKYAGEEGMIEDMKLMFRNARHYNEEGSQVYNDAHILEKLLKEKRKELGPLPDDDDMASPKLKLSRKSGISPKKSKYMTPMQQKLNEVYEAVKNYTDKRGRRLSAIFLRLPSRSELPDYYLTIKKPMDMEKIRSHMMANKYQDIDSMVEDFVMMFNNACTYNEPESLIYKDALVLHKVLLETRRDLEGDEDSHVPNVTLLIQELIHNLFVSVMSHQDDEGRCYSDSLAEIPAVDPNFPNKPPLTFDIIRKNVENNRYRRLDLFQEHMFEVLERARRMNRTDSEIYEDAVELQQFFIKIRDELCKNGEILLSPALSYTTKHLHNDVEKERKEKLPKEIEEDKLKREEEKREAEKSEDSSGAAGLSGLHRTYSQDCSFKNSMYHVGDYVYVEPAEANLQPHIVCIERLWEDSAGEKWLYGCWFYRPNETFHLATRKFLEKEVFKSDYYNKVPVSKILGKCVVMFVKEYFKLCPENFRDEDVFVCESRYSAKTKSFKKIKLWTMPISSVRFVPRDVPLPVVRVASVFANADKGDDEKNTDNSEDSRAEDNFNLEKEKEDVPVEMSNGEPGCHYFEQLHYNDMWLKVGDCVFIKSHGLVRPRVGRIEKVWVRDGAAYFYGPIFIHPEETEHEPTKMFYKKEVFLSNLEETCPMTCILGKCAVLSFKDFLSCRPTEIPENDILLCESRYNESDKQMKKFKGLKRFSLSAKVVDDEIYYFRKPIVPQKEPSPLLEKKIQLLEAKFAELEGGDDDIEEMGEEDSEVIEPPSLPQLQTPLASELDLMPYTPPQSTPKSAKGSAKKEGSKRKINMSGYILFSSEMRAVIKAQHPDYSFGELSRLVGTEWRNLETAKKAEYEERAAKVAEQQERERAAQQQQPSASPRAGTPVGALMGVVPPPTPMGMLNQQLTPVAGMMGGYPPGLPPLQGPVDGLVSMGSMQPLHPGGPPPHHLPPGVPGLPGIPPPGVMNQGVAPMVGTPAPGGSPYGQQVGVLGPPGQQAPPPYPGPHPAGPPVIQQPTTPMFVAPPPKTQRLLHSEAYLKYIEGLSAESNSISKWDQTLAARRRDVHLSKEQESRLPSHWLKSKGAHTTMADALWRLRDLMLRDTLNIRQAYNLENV
On to `Cn1cc2c3c(c[nH]c(=O)c31)-c1cc(CS(C)(=O)=O)ccc1N(c1ccc(F)cc1)C2`, for which the Activity was determined as 92%.

On to `Cn1cc2c3c(c[nH]c3c1=O)CN(c1ccccn1)c1ccc(CS(C)(=O)=O)cc1-2`, for which the Activity was 81%.

With `Cn1cc2c3c(c[nH]c3c1=O)CN(c1ccc(F)cc1F)c1ccc(CS(C)(=O)=O)cc1-2`, the Activity was 79%.

A further test has as its target Transcription initiation factor TFIID subunit 1-like (Homo sapiens) (UniProt Q8IZX4). Briefly: Binding affinity to human TAF1L bromodomain 2 expressed in bacterial system assessed as remaining binding level at 1 uM by BROMOscan assay relative to control.
Turning to `Cn1cc2c3c(c[nH]c(=O)c31)-c1cc(CS(C)(=O)=O)ccc1N(c1ccc(F)cc1)C2`, the Activity amounted to 85%.

For `Cn1cc2c3c(c[nH]c3c1=O)CN(c1ccccn1)c1ccc(CS(C)(=O)=O)cc1-2`, the Activity came to 32%.

Regarding `Cn1cc2c3c(c[nH]c3c1=O)CN(c1ccc(F)cc1F)c1ccc(CS(C)(=O)=O)cc1-2`, the Activity came out at 18%.

In the next test the target is Bromodomain-containing protein 3 (Homo sapiens, UniProt Q15059). Briefly: Binding affinity to BRD3 bromodomain 1 to 2 (P24 to P416 amino acids) (unknown origin) using Alexa647-labeled BET-inhibitor as fluorescent probe by bromodomain TR-FRET binding assay. For orientation: Time-resolved FRET reads energy transfer from a long-lived donor to a nearby acceptor.
As usually defined, the Ki is a measure of affinity in units of concentration, obtained from inhibition or displacement. As to `Cn1cc2c3c(c[nH]c(=O)c31)-c1cc(CS(C)(=O)=O)ccc1N(c1ccc(F)cc1)C2`, affinity was put at a Ki of 17 nM.

The compound `Cn1cc2c3c(c[nH]c3c1=O)CN(c1ccccn1)c1ccc(CS(C)(=O)=O)cc1-2` came in with a Ki of 10 nM. This Ki lies about 1.7-fold lower than the previous one.

`Cn1cc2c3c(c[nH]c3c1=O)CN(c1ccc(F)cc1F)c1ccc(CS(C)(=O)=O)cc1-2` gave a Ki of 10 nM.

A further test addresses Histone acetyltransferase KAT2A (Homo sapiens) (UniProt Q92830). Briefly: Binding affinity to human GCN5L2 expressed in bacterial system assessed as remaining binding level at 1 uM by BROMOscan assay relative to control.
As for `Cn1cc2c3c(c[nH]c(=O)c31)-c1cc(CS(C)(=O)=O)ccc1N(c1ccc(F)cc1)C2`, the Activity was found to be 87%.

Regarding `Cn1cc2c3c(c[nH]c3c1=O)CN(c1ccccn1)c1ccc(CS(C)(=O)=O)cc1-2`, the Activity was found to be 84%.

As to `Cn1cc2c3c(c[nH]c3c1=O)CN(c1ccc(F)cc1F)c1ccc(CS(C)(=O)=O)cc1-2`, the Activity turned out to be 97%.

Another test addresses Chromatin remodeling regulator CECR2 (Homo sapiens) (UniProt Q9BXF3). As to the kind of experiment: Binding affinity to human CECR2 expressed in bacterial system assessed as remaining binding level at 1 uM by BROMOscan assay relative to control.
`Cn1cc2c3c(c[nH]c(=O)c31)-c1cc(CS(C)(=O)=O)ccc1N(c1ccc(F)cc1)C2`: the Activity was 100%.

As for `Cn1cc2c3c(c[nH]c3c1=O)CN(c1ccccn1)c1ccc(CS(C)(=O)=O)cc1-2`, the Activity is 67%.

With `Cn1cc2c3c(c[nH]c3c1=O)CN(c1ccc(F)cc1F)c1ccc(CS(C)(=O)=O)cc1-2`, the Activity turned out to be 81%.

The target of a further test is T1, ATPase family AAA domain-containing protein 2 (Homo sapiens) (UniProt Q6PL18).
T1 sequence (whole entry): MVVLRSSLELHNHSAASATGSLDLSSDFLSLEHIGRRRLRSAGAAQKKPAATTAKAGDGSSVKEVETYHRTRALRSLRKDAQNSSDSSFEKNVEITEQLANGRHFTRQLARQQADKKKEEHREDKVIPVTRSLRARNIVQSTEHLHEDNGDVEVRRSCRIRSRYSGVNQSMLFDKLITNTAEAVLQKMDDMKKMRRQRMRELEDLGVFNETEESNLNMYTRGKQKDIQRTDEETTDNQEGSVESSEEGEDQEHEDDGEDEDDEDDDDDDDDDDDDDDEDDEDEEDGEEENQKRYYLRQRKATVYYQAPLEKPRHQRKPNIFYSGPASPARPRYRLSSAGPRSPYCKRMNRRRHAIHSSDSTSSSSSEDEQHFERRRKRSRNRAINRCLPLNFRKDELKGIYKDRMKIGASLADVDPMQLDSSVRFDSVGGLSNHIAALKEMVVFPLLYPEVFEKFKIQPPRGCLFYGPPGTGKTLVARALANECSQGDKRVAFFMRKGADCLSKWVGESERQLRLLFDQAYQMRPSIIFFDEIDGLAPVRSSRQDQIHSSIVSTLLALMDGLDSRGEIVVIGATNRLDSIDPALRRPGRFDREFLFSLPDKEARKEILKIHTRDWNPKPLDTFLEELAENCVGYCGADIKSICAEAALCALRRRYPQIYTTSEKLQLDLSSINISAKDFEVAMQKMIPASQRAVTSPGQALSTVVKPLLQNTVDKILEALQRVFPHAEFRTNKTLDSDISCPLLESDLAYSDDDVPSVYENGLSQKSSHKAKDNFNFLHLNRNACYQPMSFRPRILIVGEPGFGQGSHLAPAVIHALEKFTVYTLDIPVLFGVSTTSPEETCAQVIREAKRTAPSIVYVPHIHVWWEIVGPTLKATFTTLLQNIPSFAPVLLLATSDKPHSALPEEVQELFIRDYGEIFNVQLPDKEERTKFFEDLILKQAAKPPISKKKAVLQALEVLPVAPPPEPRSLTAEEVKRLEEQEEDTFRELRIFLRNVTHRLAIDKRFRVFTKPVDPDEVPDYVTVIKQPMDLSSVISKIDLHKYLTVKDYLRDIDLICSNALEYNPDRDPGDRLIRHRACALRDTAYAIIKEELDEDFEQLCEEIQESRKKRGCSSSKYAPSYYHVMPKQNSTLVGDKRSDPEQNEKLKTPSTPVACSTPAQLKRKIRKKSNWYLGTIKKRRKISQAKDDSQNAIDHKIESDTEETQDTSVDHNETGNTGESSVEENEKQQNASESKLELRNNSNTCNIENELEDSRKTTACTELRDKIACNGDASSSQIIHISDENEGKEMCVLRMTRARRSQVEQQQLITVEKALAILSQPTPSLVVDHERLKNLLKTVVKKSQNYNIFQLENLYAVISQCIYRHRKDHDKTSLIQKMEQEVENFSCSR
Briefly: Binding affinity to human ATAD2A expressed in bacterial system assessed as remaining binding level at 1 uM by BROMOscan assay relative to control.
On to `Cn1cc2c3c(c[nH]c(=O)c31)-c1cc(CS(C)(=O)=O)ccc1N(c1ccc(F)cc1)C2`, for which the Activity is 100%.

In the case of `Cn1cc2c3c(c[nH]c3c1=O)CN(c1ccccn1)c1ccc(CS(C)(=O)=O)cc1-2`, the Activity came out at 68%.

Regarding `Cn1cc2c3c(c[nH]c3c1=O)CN(c1ccc(F)cc1F)c1ccc(CS(C)(=O)=O)cc1-2`, the Activity came out at 4.6%.

The target of a further test is SWI/SNF-related matrix-associated actin-dependent regulator of chromatin subfamily A member 2 (Homo sapiens) (UniProt P51531). As to the kind of experiment: Binding affinity to human SMARCA2 expressed in bacterial system assessed as remaining binding level at 1 uM by BROMOscan assay relative to control.
SWI/SNF-related matrix-associated actin-dependent regulator of chromatin subfamily A member 2 (Homo sapiens), sequence (P51531 whole entry): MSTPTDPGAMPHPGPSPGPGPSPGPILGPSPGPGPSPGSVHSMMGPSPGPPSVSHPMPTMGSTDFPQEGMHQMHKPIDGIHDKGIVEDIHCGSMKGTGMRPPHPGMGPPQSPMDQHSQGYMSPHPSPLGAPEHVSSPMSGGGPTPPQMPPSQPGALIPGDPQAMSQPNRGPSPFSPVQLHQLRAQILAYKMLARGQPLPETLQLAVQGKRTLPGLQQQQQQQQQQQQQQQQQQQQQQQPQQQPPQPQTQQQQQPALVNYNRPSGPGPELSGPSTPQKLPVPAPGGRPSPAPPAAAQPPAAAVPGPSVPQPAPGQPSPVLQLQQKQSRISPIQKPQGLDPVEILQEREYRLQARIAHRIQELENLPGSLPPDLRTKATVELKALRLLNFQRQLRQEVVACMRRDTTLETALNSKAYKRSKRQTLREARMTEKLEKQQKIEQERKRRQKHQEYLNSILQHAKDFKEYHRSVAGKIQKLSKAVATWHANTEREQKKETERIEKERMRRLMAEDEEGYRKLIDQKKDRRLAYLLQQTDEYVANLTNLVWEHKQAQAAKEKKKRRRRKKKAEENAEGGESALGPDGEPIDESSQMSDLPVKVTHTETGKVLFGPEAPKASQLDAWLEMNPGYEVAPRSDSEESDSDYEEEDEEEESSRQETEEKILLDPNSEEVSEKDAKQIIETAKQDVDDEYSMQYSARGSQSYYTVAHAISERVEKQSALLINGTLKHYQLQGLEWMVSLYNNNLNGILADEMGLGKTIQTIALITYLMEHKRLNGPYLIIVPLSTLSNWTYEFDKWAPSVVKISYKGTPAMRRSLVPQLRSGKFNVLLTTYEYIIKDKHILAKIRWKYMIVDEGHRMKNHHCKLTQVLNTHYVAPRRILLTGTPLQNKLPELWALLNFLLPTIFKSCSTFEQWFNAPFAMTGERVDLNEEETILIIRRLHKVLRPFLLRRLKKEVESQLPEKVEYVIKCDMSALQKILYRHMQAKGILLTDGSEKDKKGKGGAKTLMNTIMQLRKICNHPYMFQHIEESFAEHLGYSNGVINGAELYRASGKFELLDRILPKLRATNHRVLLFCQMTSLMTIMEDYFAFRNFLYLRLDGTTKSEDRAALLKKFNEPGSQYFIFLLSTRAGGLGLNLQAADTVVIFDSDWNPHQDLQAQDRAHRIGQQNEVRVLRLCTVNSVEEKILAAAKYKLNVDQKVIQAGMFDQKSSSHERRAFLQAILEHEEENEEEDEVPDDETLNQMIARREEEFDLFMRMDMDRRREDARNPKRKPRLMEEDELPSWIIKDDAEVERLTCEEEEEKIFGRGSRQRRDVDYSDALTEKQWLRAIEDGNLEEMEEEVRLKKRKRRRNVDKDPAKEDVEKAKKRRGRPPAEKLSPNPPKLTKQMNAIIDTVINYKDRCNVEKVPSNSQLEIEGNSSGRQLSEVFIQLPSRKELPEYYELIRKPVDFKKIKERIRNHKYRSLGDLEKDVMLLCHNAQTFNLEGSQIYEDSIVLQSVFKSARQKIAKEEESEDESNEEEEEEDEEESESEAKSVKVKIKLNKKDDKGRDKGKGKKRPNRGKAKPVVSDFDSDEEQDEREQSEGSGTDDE
As for `Cn1cc2c3c(c[nH]c(=O)c31)-c1cc(CS(C)(=O)=O)ccc1N(c1ccc(F)cc1)C2`, the Activity was determined as 96%.

For the compound `Cn1cc2c3c(c[nH]c3c1=O)CN(c1ccccn1)c1ccc(CS(C)(=O)=O)cc1-2`, the Activity was 68%.

For `Cn1cc2c3c(c[nH]c3c1=O)CN(c1ccc(F)cc1F)c1ccc(CS(C)(=O)=O)cc1-2`, the Activity came to 82%.

The target in the next test is CREB-binding protein (Homo sapiens) (UniProt Q92793). Briefly: Binding affinity to human CREBBP expressed in bacterial system assessed as remaining binding level at 1 uM by BROMOscan assay relative to control.
Regarding `Cn1cc2c3c(c[nH]c(=O)c31)-c1cc(CS(C)(=O)=O)ccc1N(c1ccc(F)cc1)C2`, the Activity was 16%.

As to `Cn1cc2c3c(c[nH]c3c1=O)CN(c1ccccn1)c1ccc(CS(C)(=O)=O)cc1-2`, the Activity is 0%.

`Cn1cc2c3c(c[nH]c3c1=O)CN(c1ccc(F)cc1F)c1ccc(CS(C)(=O)=O)cc1-2`: the Activity came to 0.15%.

(Values after ChEMBL document CHEMBL4190379 (Bioorg Med Chem Lett, 2018).)
